Assay results taken from PMC12040169 (PLOS Biology, 2025).

Test: in vitro
Conditions: human, hela cells, % viability

Going from CCn1cc(CN2CCCN(C(=O)c3ccc(Cl)cn3)CC2)cn1 [CBK304760] to CCn1cc(CN2CCCN(C(=O)c3cn4ccccc4n3)CC2)cn1 [CBK304784], the viability at 28.5 h, 10 µM rises from 84.3% to 98.3%.

Going from CCCC(=O)N1CCn2c(nnc2-c2cncc(Br)c2)C1 [CBK304761] to O=C(CCCC1CC1)N1CCn2c(nnc2-c2cncc(Br)c2)C1 [CBK304767], the viability at 28.5 h, 10 µM rises from 93.4% to 96.4%.

Going from Cn1ccc(CNCc2c(Br)cc(F)c(F)c2N2CCCCC2)n1 [CBK304763] to CCC(CNC(=O)c1ccoc1C)N1CCCC1 (stereo not shown) [CBK304798], the viability at 28.5 h, 10 µM falls from 105% to 88.9%.

First: CCCC(=O)Nc1ccc(OCc2cnccn2)c(C(C)=O)c1 [CBK304766]
Second: Cc1cc(C)n(CCCNC(=O)Nc2cccnc2)n1 [CBK304820]
The viability at 28.5 h, 10 µM of the first is higher: 102% for the first, 84.6% for the second.

First: COCC1CN(S(=O)(=O)c2cnc3ccsc3c2)C1 [CBK304768]
Second: COCC(C)N(C)S(=O)(=O)c1ccc(Cl)nc1 (stereo not shown) [CBK304813]
The viability at 28.5 h, 10 µM of the first is lower: 72.4% for the first, 95.2% for the second.

Compared with Cc1ccc(Cl)c(OC(C)C(=O)N2CCOC(CC(=O)O)C2)c1 (stereo not shown) [CBK304769], Cc1cnn(C2CCCN(C(=O)Cc3cccs3)C2)c1 (stereo not shown) [CBK304832] is higher in viability at 28.5 h, 10 µM: 93% for the first, 102% for the second.

Going from CC1CN(c2cc(CO)c(F)cn2)CC2(CCOC2)O1 (stereo not shown) [CBK304772] to OCc1cc(N2CCOC3(CCCOC3)C2)ncc1F (stereo not shown) [CBK304774], the viability at 28.5 h, 10 µM rises from 93.8% to 94.7%.

Going from Cn1nnc2cc(NCC3(CNC(=O)OC(C)(C)C)CC3)ccc21 [CBK304777] to CC(C)(C)OC(=O)N1CCC(NCCc2ccccn2)C1 (stereo not shown) [CBK304839], the viability at 28.5 h, 10 µM rises from 89.1% to 94.2%.

Going from CCN(Cc1cnn(C)c1)S(=O)(=O)c1ccc2c(c1)CCCC(=O)N2 [CBK304782] to Cn1cc(CC2CCN(Cc3ccncc3)C2)cn1 (stereo not shown) [CBK304796], the viability at 28.5 h, 10 µM rises from 100% to 107%.

First: Cn1cc(CN2CCOC(c3nc(C(C)(C)C)cs3)C2)nn1 (stereo not shown) [CBK304783]
Second: CCCc1csc(C2CN3CCCC3CO2)n1 (stereo not shown) [CBK304799]
The viability at 28.5 h, 10 µM of the first is higher: 90.5% for the first, 88.3% for the second.

First: CN(Cc1ccc(Br)cc1Cl)C(=O)c1cn[nH]c1C1CCNC1 (stereo not shown) [CBK304785]
Second: CCC1CCCCN1C(=O)c1ccc(NC2CC2)nc1 (stereo not shown) [CBK304815]
The viability at 28.5 h, 10 µM of the first is higher: 93.5% for the first, 92.2% for the second.

Compared with Cc1cc(C)cc(OCC(=O)Nc2c(C#N)c(C)nn2C)c1 [CBK304791], Cc1nn(C)c(Cl)c1CN(CCC#N)Cc1ccco1 [CBK304825] is lower in viability at 28.5 h, 10 µM: 110% for the first, 96.6% for the second.

Compared with Cc1ccnc(N2CCOC3(CCCC3)C2)n1 [CBK304794], Cc1nc(S(=O)(=O)N2CCOC3(CCCC3)C2)cn1C [CBK304834] is higher in viability at 28.5 h, 10 µM: 93.1% for the first, 109% for the second.

First: Cc1csc(CC(C)n2cc(Cl)cn2)n1 (stereo not shown) [CBK304797]
Second: Cc1noc(C)c1CN(C)C(C)C(=O)Nc1nccs1 (stereo not shown) [CBK304826]
The viability at 28.5 h, 10 µM of the first is lower: 99.8% for the first, 105% for the second.

First: CCCNC(=O)CN(C)Cc1cn2cccc(C)c2n1 [CBK304800]
Second: CC(=O)NCCCSCc1cn2cccc(C)c2n1 [CBK304809]
The viability at 28.5 h, 10 µM of the first is lower: 85.2% for the first, 98.5% for the second.

Going from CC(=O)Nc1cccc(CN(CCCCO)C2CC2)c1 [CBK304806] to CC(=O)Nc1cccc(CN(CCCO)c2ccccc2)c1 [CBK304833], the viability at 28.5 h, 10 µM rises from 91.6% to 97.1%.

First: Cc1nc(C(=O)N(CCO)Cc2ccccc2)cs1 [CBK304810]
Second: CC(Oc1cccc(F)c1)C(=O)N(C)Cc1cccnc1 (stereo not shown) [CBK304841]
The viability at 28.5 h, 10 µM of the first is higher: 105% for the first, 95.5% for the second.

First: Cc1nnc(CN(CC2CCCO2)C2CCC(C)CC2)o1 (stereo not shown) [CBK304824]
Second: CCc1nc2n(n1)CC(NC1CCCc3ccccc31)CC2 (stereo not shown) [CBK304837]
The viability at 28.5 h, 10 µM of the first is lower: 94.7% for the first, 95.6% for the second.

Compared with COc1ccc(CCNC(=O)CN2CCCCC2C)cc1 (stereo not shown) [CBK304827], CC1CCC(C(N)=O)CN1c1cc(=O)n2ccccc2n1 (stereo not shown) [CBK304835] is higher in viability at 28.5 h, 10 µM: 94.4% for the first, 104% for the second.

Going from Cc1nc(CCNCc2c(C)nn(C)c2N(C)C)cs1 [CBK304828] to CCOC(=O)C1CCCN(Cc2c(C)nn(C)c2Cl)C1 (stereo not shown) [CBK304838], the viability at 28.5 h, 10 µM rises from 88.3% to 92.4%.
